Results on seven molecules are retold here after ChEMBL document CHEMBL1201862, “PubChem BioAssay data set” (2004).

The nature of assay [1]: Luminescence Cell-Based Dose Response HTS to Identify Inhibitors of 5'UTR Stem-Loop Driven Prion Protein mRNA Translation in H4 Neuroglioblastoma Cells. [Related pubchem assays: 1827 (Project Summary), 1813 (Primary HTS)]. The format is functional.
A short description of assay [2]: HIV-1 AD8 envelope cell-cell fusion blockers – cherry-pick, dose response (AID 652062).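 Also: luciferase signal from cell-cell fusion driven by HIV-1 clade B AD8 Env; potency is for inhibitors of fusion seen as a drop in luminescence.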 It counts as functional, cell-based.
Assay [3] in a line: luciferase reporter signal suppression in cells – H4 neuroglioma cells, luminescence, dose response (AID 1990). It counts as functional, cell-based. A general note: Reporter assays use an easily measured gene product as a stand-in for the process of interest.
Assay [4] is described as follows: off-target signal loss in HeLa-CEM21 co-culture – HeLa F-luc CTL cells, cherry-picked, counter-screen for HIV-1 Env fusion inhibitor project, dose response (AID 652040).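 Also: potency for signal decrease marking cytotoxic or nonspecific inhibition.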 The format is functional, cell-based. In general terms: The purpose of a counterscreen is to sort out artefacts and off-target activity.
A short description of assay [5]: alpha-synuclein stem-loop luciferase translation blockers – H4 neuroglioma cells, luminescence, confirmation (AID 1988). It counts as functional, cell-based.
Assay [6] can be described thus: blockers of HIV-1 envelope-mediated cell-cell fusion – cherry-pick, dose response (AID 652057). The format is functional, cell-based.
The target in assay [7] is T1, Heat shock factor protein 1 (Mus musculus, UniProt P38532).
T1 sequence (P38532 whole entry): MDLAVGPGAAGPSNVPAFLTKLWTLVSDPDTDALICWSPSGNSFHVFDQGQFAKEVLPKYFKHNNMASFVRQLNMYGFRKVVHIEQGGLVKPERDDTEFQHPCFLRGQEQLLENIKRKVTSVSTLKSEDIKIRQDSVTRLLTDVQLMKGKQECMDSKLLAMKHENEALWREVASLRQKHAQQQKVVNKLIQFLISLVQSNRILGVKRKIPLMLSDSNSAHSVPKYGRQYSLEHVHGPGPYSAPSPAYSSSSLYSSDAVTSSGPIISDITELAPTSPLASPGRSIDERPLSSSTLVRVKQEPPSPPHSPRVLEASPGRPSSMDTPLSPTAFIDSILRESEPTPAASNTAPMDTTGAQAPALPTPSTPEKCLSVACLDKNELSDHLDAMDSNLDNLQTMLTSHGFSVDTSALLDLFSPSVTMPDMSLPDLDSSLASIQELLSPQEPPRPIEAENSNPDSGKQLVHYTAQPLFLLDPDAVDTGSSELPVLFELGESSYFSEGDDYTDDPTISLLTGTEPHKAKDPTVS
Put plainly: decrease of HSF1-responsive luciferase luminescence – cell-based, NIH3T3, dose retest, confirmation (AID 2382).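 Also: NIH3T3 fibroblasts with HSF1-driven luciferase reporter stressed by proteasome inhibitor MG132; luminescence from HSF1-driven luciferase expression after 8 hours of MG132 stress.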 The format is functional.

The subject of another assay is HEK293. The experiment in a line: EBV LMP1 TES2 canonical NF-kB signalling blockers – cell-based, HEK293, luciferase, cherry-pick, dose response (AID 588343). Particulars: Homo sapiens. The format is functional.
Assay [8] in a line: blockers of HIV-1 ZM109 envelope-driven cell-cell fusion – HeLa effector, CEM target cells, luciferase, cherry-pick, dose response (AID 652058).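 Also: luciferase signal from HIV-1 Env mediated cell-cell fusion of effector and target cells.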 It counts as functional, cell-based.
A further assay deals with T2, Aminopeptidase N (Plasmodium falciparum FcB1/Columbia, UniProt O96935).
T2 sequence (O96935 whole entry): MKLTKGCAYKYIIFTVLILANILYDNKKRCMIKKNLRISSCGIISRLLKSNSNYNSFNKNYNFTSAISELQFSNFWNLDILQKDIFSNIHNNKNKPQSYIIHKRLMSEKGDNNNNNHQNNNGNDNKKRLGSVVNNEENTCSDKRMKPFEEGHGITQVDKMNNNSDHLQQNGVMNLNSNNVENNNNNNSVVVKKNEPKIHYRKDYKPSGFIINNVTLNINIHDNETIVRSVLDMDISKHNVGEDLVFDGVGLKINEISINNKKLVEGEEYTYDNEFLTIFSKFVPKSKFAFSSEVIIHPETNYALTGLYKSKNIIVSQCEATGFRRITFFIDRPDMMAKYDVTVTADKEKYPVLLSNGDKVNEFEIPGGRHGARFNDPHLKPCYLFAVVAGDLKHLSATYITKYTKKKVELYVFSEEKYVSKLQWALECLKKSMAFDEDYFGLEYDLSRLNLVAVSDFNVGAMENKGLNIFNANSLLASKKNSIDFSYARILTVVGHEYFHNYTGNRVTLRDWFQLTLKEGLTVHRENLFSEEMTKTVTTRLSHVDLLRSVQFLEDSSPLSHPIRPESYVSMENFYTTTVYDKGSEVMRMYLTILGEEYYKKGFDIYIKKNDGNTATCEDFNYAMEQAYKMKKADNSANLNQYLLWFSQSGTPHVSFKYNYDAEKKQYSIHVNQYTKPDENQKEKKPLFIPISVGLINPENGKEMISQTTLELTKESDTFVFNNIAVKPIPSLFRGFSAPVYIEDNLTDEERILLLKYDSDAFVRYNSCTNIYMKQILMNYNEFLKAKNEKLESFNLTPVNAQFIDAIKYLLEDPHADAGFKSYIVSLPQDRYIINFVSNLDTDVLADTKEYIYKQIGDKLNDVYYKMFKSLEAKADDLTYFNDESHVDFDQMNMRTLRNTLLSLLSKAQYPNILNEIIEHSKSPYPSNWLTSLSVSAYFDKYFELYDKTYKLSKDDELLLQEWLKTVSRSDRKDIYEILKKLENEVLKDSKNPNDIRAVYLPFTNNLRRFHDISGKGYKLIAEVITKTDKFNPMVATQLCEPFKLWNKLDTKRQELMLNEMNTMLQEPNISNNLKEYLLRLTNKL
Put plainly: malaria alanyl aminopeptidase activity blockers – biochemical, fluorogenic H-Leu-NHMec substrate, 1536-well (AID 1445). Also on record: species or system Plasmodium falciparum 3D7, 3D7.

The subject of assay [9] is Streptococcus sp. 'group A'. Put plainly: Streptococcus pyogenes SK(-)GAS viability under kanamycin – luminescence, BacTiterGlo, confirmation, counter-screen for streptokinase expression inhibitor project, dose response (AID 1900). It counts as functional, organism-based.
A further assay deals with T3, Streptokinase A (Streptococcus pyogenes serotype M1, UniProt P10520).
T3 sequence (P10520 whole entry): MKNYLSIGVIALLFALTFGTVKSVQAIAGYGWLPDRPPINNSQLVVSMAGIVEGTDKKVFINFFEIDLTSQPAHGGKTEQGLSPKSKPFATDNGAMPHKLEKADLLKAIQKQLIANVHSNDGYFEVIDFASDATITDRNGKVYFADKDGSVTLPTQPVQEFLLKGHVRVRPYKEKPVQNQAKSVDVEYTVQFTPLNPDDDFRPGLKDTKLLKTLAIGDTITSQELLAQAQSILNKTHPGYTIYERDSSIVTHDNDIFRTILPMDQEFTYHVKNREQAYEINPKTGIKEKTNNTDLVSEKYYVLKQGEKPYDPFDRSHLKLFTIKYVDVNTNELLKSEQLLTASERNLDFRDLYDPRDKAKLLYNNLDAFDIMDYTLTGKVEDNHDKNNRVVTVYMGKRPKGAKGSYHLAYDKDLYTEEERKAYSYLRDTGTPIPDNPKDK
Put plainly: viability-normalized secreted streptokinase activity reduction – plasminogen activation absorbance, OD405, dose response (AID 1914).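 Also: secreted streptokinase activity via plasminogen activation per viability signal from cell pellet.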 It counts as functional, Streptococcus pyogenes M1 GAS.

The target in assay [10] is T4, Long-chain-fatty-acid--AMP ligase FadD28 (Mycobacterium tuberculosis, UniProt P9WQ59).
T4 sequence (P9WQ59 whole entry): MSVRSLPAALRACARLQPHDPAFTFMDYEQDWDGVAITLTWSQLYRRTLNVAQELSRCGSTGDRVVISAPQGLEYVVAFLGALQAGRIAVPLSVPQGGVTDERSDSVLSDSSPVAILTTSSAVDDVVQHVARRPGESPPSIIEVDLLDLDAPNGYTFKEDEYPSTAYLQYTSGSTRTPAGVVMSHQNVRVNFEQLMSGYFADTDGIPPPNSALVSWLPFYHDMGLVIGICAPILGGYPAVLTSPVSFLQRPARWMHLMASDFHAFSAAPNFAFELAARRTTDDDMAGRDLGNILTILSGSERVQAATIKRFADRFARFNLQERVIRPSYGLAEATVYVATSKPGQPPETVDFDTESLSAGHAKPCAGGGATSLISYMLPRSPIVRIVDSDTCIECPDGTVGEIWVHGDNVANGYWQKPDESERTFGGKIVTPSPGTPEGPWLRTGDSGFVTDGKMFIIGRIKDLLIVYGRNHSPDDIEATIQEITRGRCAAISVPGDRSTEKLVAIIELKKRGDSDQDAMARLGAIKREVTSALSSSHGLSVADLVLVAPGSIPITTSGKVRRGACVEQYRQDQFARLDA
Put plainly: Fluorescence polarization aasay to screen for inhibitors that compete for the binding of FadD28 to a bisubstrate Measured in Biochemical System Using Plate Reader - 2147-01_Inhibitor_Dose_CherryPick_Activity. It counts as functional, Mycobacterium tuberculosis H37Rv. On the technique in general: In fluorescence polarisation assays a small probe gives low polarisation when free and higher when bound to something large.

In the next assay the target is T5, Leucine aminopeptidase (Plasmodium falciparum 3D7, UniProt Q8IL11).
T5 sequence (Q8IL11 whole entry): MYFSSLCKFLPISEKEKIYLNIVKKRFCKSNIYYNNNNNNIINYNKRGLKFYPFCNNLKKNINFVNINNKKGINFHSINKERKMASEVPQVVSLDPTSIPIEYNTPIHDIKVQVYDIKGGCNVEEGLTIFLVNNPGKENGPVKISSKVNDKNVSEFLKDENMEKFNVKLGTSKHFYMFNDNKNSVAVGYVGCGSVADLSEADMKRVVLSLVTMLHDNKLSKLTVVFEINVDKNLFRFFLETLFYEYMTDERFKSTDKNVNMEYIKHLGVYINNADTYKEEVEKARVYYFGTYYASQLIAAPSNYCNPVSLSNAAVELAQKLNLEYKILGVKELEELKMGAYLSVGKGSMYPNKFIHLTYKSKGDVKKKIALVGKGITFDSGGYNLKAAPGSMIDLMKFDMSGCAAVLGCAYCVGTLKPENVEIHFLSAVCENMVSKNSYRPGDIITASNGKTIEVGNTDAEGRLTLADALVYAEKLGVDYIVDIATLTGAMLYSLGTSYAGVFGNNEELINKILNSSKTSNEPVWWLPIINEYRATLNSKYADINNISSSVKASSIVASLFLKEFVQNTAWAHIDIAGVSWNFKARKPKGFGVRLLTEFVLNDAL
Put plainly: P. falciparum M17LAP inhibitors, primary screen, biochemical, fluorogenic H-Leu-NHMec substrate, 1536-well (AID 1619). The format is functional.

For the next assay, the system named is Streptococcus. The experiment in a line: GAS UMAA2166 growth inhibition – luminescence, BacTiterGlo, counter-screen for streptokinase expression inhibitor project, dose response (AID 1915).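 Also: potency for reduction of bacterial viability or growth.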 It counts as functional, organism-based.
The nature of assay [11]: HEK-293T viability loss after treatment – luminescence, T-cell screen hits, cytotoxicity control for TCR NF-kB inhibitor project, dose response (AID 489026).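 Also: cells exposed to compound about 14 hours before the viability readout.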 It counts as functional, cell-based.
The next assay has as its target Protein Wnt-3a (Mus musculus, UniProt P27467). The experiment in a line: antagonism of Wnt3a pathway luciferase reporter – Wnt-LIGHT cells, luminescence, selectivity assay for Gli-SUFU antagonist project, dose response (AID 651570).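 Also: Wnt-LIGHT reporter cells stimulated with conditioned medium from Wnt3a-producing cells.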 Particulars: read-out: IC50_Mean. It counts as functional.

The EC50 is the concentration at which the effect is half-maximal. Broadly, the AC50 is the midpoint of the concentration-response curve, whichever way the signal moves.

The source made the active and inactive calls.

Chain of Protein Wnt-3a (P27467 whole entry): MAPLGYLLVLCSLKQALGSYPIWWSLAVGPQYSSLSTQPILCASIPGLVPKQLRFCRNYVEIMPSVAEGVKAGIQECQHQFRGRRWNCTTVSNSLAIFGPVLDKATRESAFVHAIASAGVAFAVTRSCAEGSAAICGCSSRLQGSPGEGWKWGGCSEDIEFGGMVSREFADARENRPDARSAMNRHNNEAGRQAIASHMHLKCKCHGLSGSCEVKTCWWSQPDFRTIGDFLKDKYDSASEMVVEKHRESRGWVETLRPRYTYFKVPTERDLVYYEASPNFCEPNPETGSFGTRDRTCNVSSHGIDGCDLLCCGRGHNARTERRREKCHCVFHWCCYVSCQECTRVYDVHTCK

`NC(=O)c1sc2nc3c(c(-c4cccs4)c2c1N)CCCCC3`: the EC50 in [1] is 9.4 µM (active); in assay [3], 16.5 µM (active); in assay [5], 11.1 µM (active); in assay [7] it was 0.285 µM (active). Besides, the AC50 was 1.43 µM (active) in assay [2]; 1.67 µM (active) in assay [4]; 0.743 µM (active) in assay [6]; 2.27 µM (active) with HEK293; < 0.26 µM (active) in assay [8].

In the case of `Cc1n[nH]c(C)c1S(=O)(=O)N(CC(=O)NC1CCCC1)c1ccc(C(C)C)cc1`, the AC50 in assay [2] is 3.53 µM (active); in assay [4], 6.27 µM (active); in [6] it was 3.91 µM (active); in assay [8], 2.38 µM (active).

`COC(=O)[C@@]1(C)[C@H]2C(=O)N(Cc3ccccc3)C(=O)[C@H]2[C@H]2CN=C(SCc3ccc(Cl)cc3)N21`: the half-maximal activity concentration (AC50) is 0.796 µM (active) in assay [2]; 1.04 µM (active) in assay [4]; 0.876 µM (active) in [6]; 4.73 µM (active) in the assay on HEK293; 0.891 µM (active) in assay [8].

On to `CCCCn1c(N)c(N(CC(C)C)C(=O)c2ccc(S(=O)(=O)N(CC)c3ccccc3)cc2)c(=O)[nH]c1=O`, for which the AC50 in assay [2] was 2.78 µM (active); in assay [4], 0.877 µM (active); in [6], 0.402 µM (active); in [8] it was < 0.26 µM (active).

For the molecule `CC(=O)NS(=O)(=O)c1ccc(/N=c2\ssc3c2-c2ccc(C)cc2NC3(C)C)cc1`, the IC50 is 89.3 µM (active) at Aminopeptidase N and 2.6 µM (active) at Leucine aminopeptidase. Besides, the values for the EC50 (in [9]; at Streptokinase A; in the assay with Streptococcus) were 2.31 µM (active), > 150 µM (not active) and 12.1 µM (active), respectively. In addition, in assay [10], the AC50 was > 100 µM (inactive).

For `COc1cccc(/C=N/NC(=O)CC2C(=O)NN=C2C)c1O` (stereo unspecified), the AC50 in [4] is > 70 µM (inactive); in [6], 49.9 µM (active). The IC50 at Leucine aminopeptidase was 92.1 µM (active).

Consider `Cc1nc2ccccc2c2c1CC(C(C)(Cl)Br)O2` (stereo unspecified), for which the values for the AC50 in assay [2], in [4] and in assay [6] were 1.8 µM (active), > 70 µM (inactive) and 27.6 µM (active), respectively. The IC50 was > 80 µM (inactive) in [11] and 3.82 µM (active) at Protein Wnt-3a.
